A short description of one data set: Figure 9. From the text:
Table printed on a drawing sheet, Figure 9
Footnotes: ** literature values
First reader's note: The Tesamorelin rows are literature values, and their species, dose and route are printed inside the label cell.

A further data set deals with growth hormone. As to the kind of experiment: Plasma PD study in rats: growth hormone production/release. Format: in vivo, Sprague-Dawley rats. The note with it: FIG. 10. How it is done: Five peptidomimetic macrocycles of the invention (SP-1, SP-6, SP-8, SP-21, SP-32), as well as sermorelin, were studied to determine pharmacokinetic and pharmacodynamic parameters in rats. Male Sprague-Dawley rats (300 g, non-fasted, cannulated) were used. The study had three arms: IV administration, SC administration, and SC administration (vehicle control). For experiments using sermorelin, a dose level of 3 mg/kg IV/SC bolus was used (dose volume of 3 mL/kg dose and dose concentration of 1 mg/mL). The vehicle used was: 10 wt % N, N-Dimethylacetamide, 10 wt % DMSO, 2 wt % Solutol HS 15 in water for injection containing 45 mg/mL (4.5 wt %) Mannitol and 25 mM (0.38 wt %) Histidine (pH 7.5; 320 mOsm/kg). The peptide was first dissolved at high concentration in DMA and DMSO before a second dilution in Solutol vehicle.
For experiments using peptidomimetic macrocycles, 0.1 mL of DMA and 0.1 mL of DMSO were used to combine with each mg of macrocycle (˜4.3-4.5 mg of macrocycle used in each experiment). Sonication was used to ensure complete solubilization. 0.8 mL of Solutol vehicle was used for each mg of macrocycle in DMA/DMSO. The solutions were mixed gently with pipet or light vortexing. Fresh vials were used for each day of dosing, and macrocycles were stored solid at −20° C. prior to formulation. […]

The conditions of data set [1]: cited from earlier work.

Positions of bridges follow the written chain, without caps; N, C: chain ends. Non-standard residues stand in square brackets, D forms with d. Residues, ends and D or L forms follow the SMILES beside them. R8 = C=CCCCCCC[C@@](C)(N)C(=O)O; S5 = C=CCCC[C@](C)(N)C(=O)O; Nle = CCCC[C@H](N)C(=O)O

In the case of `CCCC[C@H](NC(=O)[C@@H](NC(=O)[C@H](CC(=O)O)NC(=O)[C@H](CCC(N)=O)NC(=O)[C@H](CC(C)C)NC(=O)[C@]1(C)CCCC=CCCCCCC[C@@](C)(NC(=O)[C@H](CC(C)C)NC(=O)[C@@H](NC(=O)[C@H](CCCCN)NC(=O)[C@H](CCCNC(=N)N)NC(=O)[C@H](Cc2ccc(O)cc2)NC(=O)[C@H](CO)NC(=O)[C@]2(C)CCCC=CCCC[C@](C)(NC(=O)[C@H](CC(=O)O)NC(=O)[C@@H](C)NC(=O)[C@@H](N)Cc3ccc(O)cc3)C(=O)N[C@@H]([C@@H](C)CC)C(=O)N[C@@H](Cc3ccccc3)C(=O)N[C@@H]([C@@H](C)O)C(=O)N2)C(C)C)C(=O)N[C@@H](CCC(N)=O)C(=O)N[C@@H](CC(C)C)C(=O)N[C@@H](CO)C(=O)N[C@@H](C)C(=O)N[C@@H](CCCNC(=N)N)C(=O)N[C@@H](CCCCN)C(=O)N1)[C@@H](C)CC)C(=O)N[C@@H](CO)C(=O)N[C@@H](CCCNC(=N)N)C(N)=O` [SP-6] (H-Y[dA]D[S5]IFT[S5]SYRKVL[R8]QLSARK[S5]LQDI[Nle]SR-NH2; staple 4-8, 15-22), in “Figure 9”, the “AUCinf |” value came out at 23477 ng·h/mL, the “Clp |” value was 2.13 mL/min/kg, the “MRT | hr” value was determined as 3.7 h and the “Vdss |” value stood at 0.474 L/kg. Besides, in “Figure 9”, the “t 1/2 | hr” value came out at 20.6 h.

Turning to `CCCC[C@@H]1NC(=O)[C@H]([C@@H](C)CC)NC(=O)[C@H](CC(=O)O)NC(=O)[C@H](CCC(N)=O)NC(=O)[C@H](CC(C)C)NC(=O)[C@H](CC(C)C)NC(=O)[C@](C)(NC(=O)[C@H](CCCNC(=N)N)NC(=O)[C@H](C)NC(=O)[C@H](CO)NC(=O)[C@H](CC(C)C)NC(=O)[C@H](CCC(N)=O)NC(=O)CNC(=O)[C@H](CC(C)C)NC(=O)[C@@H](NC(=O)[C@H](CCCCN)NC(=O)[C@H](CCCNC(=N)N)NC(=O)[C@H](Cc2ccc(O)cc2)NC(=O)[C@H](CO)NC(=O)[C@]2(C)CCCC=CCCC[C@](C)(NC(=O)[C@H](CC(=O)O)NC(=O)[C@@H](C)NC(=O)[C@@H](N)Cc3ccc(O)cc3)C(=O)N[C@@H]([C@@H](C)CC)C(=O)N[C@@H](Cc3ccccc3)C(=O)N[C@@H]([C@@H](C)O)C(=O)N2)C(C)C)CCCCCCC=CCCC[C@@](C)(C(=O)N[C@@H](CCCNC(=N)N)C(N)=O)NC1=O` [SP-8] (H-Y[dA]D[S5]IFT[S5]SYRKVLGQLSAR[R8]LLQDI[Nle][S5]R-NH2; staple 4-8, 21-28), the “stimulation of growth hormone production” value in the data set on growth hormone is on record as “stimulation of growth hormone production”.

As for `CCCC[C@H](NC(=O)[C@@H](NC(=O)[C@]1(C)CCCC=CCCC[C@](C)(NC(=O)[C@H](CCCNC(=N)N)NC(=O)[C@H](C)NC(=O)[C@H](CO)NC(=O)[C@H](CC(C)C)NC(=O)[C@H](CCC(N)=O)NC(=O)CNC(=O)[C@H](CC(C)C)NC(=O)[C@@H](NC(=O)[C@]2(C)CCCC=CCCCCCC[C@@](C)(NC(=O)[C@H](C)NC(=O)[C@H](CC(=O)O)NC(=O)[C@@H](C)NC(=O)[C@@H](N)Cc3ccc(O)cc3)C(=O)N[C@@H](Cc3ccccc3)C(=O)N[C@@H]([C@@H](C)O)C(=O)N[C@@H](CC(N)=O)C(=O)N[C@@H](CO)C(=O)N[C@@H](Cc3ccc(O)cc3)C(=O)N[C@@H](CCCNC(=N)N)C(=O)N2)C(C)C)C(=O)N[C@@H](CC(C)C)C(=O)N[C@@H](CC(C)C)C(=O)N[C@@H](CCC(N)=O)C(=O)N1)[C@@H](C)CC)C(=O)N[C@@H](CO)C(=O)N[C@@H](CCCNC(=N)N)C(N)=O` [SP-21] (H-Y[dA]DA[R8]FTNSYR[S5]VLGQLSAR[S5]LLQ[S5]I[Nle]SR-NH2; staple 5-12, 21-25), in the data set “Figure 9”, the “Clp |” value amounted to 1.65 mL/min/kg, the “MRT | hr” value is 5.3 h, the “Vdss |” value amounted to 0.524 L/kg and the “t 1/2 | hr” value was 10.1 h.

In the case of `CCCC[C@H](NC(=O)[C@@H](NC(=O)[C@H](CC(=O)O)NC(=O)[C@H](CCC(N)=O)NC(=O)[C@H](CC(C)C)NC(=O)[C@H](CC(C)C)NC(=O)[C@H](CCCCN)NC(=O)[C@H](CCCNC(=N)N)NC(=O)[C@]1(C)CCCC=CCCCCCC[C@@](C)(NC(=O)[C@H](CCCNC(=N)N)NC(=O)[C@H](Cc2ccc(O)cc2)NC(=O)[C@H](CO)NC(=O)[C@H](CC(N)=O)NC(=O)[C@@H](NC(=O)[C@H](Cc2ccccc2)NC(=O)[C@@H](NC(=O)[C@H](C)NC(=O)[C@H](CC(=O)O)NC(=O)[C@@H](C)NC(=O)[C@@H](N)Cc2ccc(O)cc2)[C@@H](C)CC)[C@@H](C)O)C(=O)N[C@@H](C(C)C)C(=O)N[C@@H](CC(C)C)C(=O)NCC(=O)N[C@@H](CCC(N)=O)C(=O)N[C@@H](CC(C)C)C(=O)N[C@@H](CO)C(=O)N1)[C@@H](C)CC)C(=O)N[C@@H](CO)C(=O)N[C@@H](CCCNC(=N)N)C(N)=O` [SP-32] (H-Y[dA]DAIFTNSYR[R8]VLGQLS[S5]RKLLQDI[Nle]SR-NH2; staple 12-19), in “Figure 9”, the “Clp |” value worked out at 1.35 mL/min/kg, the “MRT | hr” value came to 2.3 h, the “Vdss |” value was found to be 0.19 L/kg and the “t 1/2 | hr” value was 9.7 h.

As to `CC/C=C/CC(=O)N[C@@H](Cc1ccc(O)cc1)C(=O)N[C@@H](C)C(=O)N[C@@H](CC(=O)O)C(=O)N[C@@H](C)C(=O)N[C@H](C(=O)N[C@@H](Cc1ccccc1)C(=O)N[C@H](C(=O)N[C@@H](CC(N)=O)C(=O)N[C@@H](CO)C(=O)N[C@@H](Cc1ccc(O)cc1)C(=O)N[C@@H](CCCNC(=N)N)C(=O)N[C@@H](CCCCN)C(=O)N[C@H](C(=O)N[C@@H](CC(C)C)C(=O)NCC(=O)N[C@@H](CCC(N)=O)C(=O)N[C@@H](CC(C)C)C(=O)N[C@@H](CO)C(=O)N[C@@H](C)C(=O)N[C@@H](CCCNC(=N)N)C(=O)N[C@@H](CCCCN)C(=O)N[C@@H](CC(C)C)C(=O)N[C@@H](CC(C)C)C(=O)N[C@@H](CCC(N)=O)C(=O)N[C@@H](CC(=O)O)C(=O)N[C@H](C(=O)N[C@@H](CCSC)C(=O)N[C@@H](CO)C(=O)N[C@@H](CCCNC(=N)N)C(=O)N[C@@H](CCC(N)=O)C(=O)N[C@@H](CCC(N)=O)C(=O)NCC(=O)N[C@@H](CCC(=O)O)C(=O)N[C@@H](CO)C(=O)N[C@@H](CC(N)=O)C(=O)N[C@@H](CCC(N)=O)C(=O)N[C@@H](CCC(=O)O)C(=O)N[C@@H](CCCNC(=N)N)C(=O)NCC(=O)N[C@@H](C)C(=O)N[C@@H](CCCNC(=N)N)C(=O)N[C@@H](C)C(=O)N[C@@H](CCCNC(=N)N)C(=O)N[C@@H](CC(C)C)C(N)=O)[C@@H](C)CC)C(C)C)[C@@H](C)O)[C@@H](C)CC` [Tesamorelin, dog 0.1 µg/kg IV**], in the data set “Figure 9”, the “AUCinf |” value was determined as 5301 ng·h/mL and the “t 1/2 | hr” value worked out at 0.4 h.

As for “GHRH: Human GHRH (Growth Hormone-Releasing Hormone), a 44-amino-acid peptide”, in data set [1], the “half-life of GHRH after intravenous injection” value is 0.167 to 0.2 h.

These data come from patent publication US9522947B2, “Peptidomimetic macrocycles” (Aileron Therapeutics, Inc., priority 2011, dated 2016).
